Measurements: patent publication US10640748B2, “Oligodendroglial cell culturing methods and in methods for treating neurodegenerative disorders by using thyroid hormones or analogues” (NeuOrphan Pty Ltd, priority 2014, dated 2020)

Tested on: hESC-derived OPCs
Test: Stage VI terminal differentiation of hESC-derived OPCs
Type: cell-based, human
Procedure: Stage VI; for terminal differentiation, these cells were plated onto poly-L-ornithine (10 μg/mL, Sigma-Aldrich) and mouse laminin (10 μg/mL, Life technologies) coated plates in N2/B27 medium supplemented with T3 (50 ng/mL, Sigma-Aldrich) for 21 days to induce pre-OLs.

N[C@@H](Cc1cc(I)c(Oc2ccc(O)c(I)c2)c(I)c1)C(=O)O [T3, Triiodothyronine]
terminal differentiation of OPCs into O4+ pre-OLs and MBP+ pre-myelinating OLs: promoted terminal differentiation
